Series [1] addresses T1, CD45 (Homo sapiens, UniProt P08575).
T1 construct: incubating the cytosolic portion of CD45 with the compounds and p-nitrophenyl phosphate (pNPP); purchased BIOMOL (Plymouth Meeting, Pa.)
T1 sequence (P08575 599-1306 limits assumed): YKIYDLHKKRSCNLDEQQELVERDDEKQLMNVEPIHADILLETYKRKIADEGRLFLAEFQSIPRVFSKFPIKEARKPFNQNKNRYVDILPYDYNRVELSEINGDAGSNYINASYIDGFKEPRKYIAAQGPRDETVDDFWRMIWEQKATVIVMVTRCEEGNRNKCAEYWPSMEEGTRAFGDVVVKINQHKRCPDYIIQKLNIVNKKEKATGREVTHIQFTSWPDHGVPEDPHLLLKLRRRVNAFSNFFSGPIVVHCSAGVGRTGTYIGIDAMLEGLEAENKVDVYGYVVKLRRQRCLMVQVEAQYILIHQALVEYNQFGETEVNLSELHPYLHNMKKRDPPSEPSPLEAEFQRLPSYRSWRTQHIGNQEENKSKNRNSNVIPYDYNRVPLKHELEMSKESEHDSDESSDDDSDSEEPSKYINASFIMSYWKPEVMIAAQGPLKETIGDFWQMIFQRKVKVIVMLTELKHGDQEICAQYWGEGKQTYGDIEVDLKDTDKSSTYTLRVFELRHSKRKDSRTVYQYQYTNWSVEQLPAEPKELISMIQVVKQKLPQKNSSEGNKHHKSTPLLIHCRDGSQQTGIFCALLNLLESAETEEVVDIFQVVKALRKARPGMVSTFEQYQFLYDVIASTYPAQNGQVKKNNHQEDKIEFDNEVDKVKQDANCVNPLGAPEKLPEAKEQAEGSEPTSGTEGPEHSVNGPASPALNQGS
The series can be described thus: Phosphatase assay using lck 10-mer as substrate. Format: biochemical. The note with it: CD45 phosphatase, lck carboxy-terminal peptide TEGQpYQPQP substrate, pH 7.2; read-out: Ick IC50. The procedure, abridged:
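Enzyme incubated with lck phosphopeptide TEGQpYQPQP for 1.5 h at room temperature in 25 mM HEPES pH 7.2, 5 mM DTT, 10 μg/mL BSA, 5% DMSO final. Compounds tested from 30 to 0.01 μM. Released phosphate detected with malachite-type Green Reagent, absorbance at 620 nm after 30 min.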

Series [2] concerns T-cell lymphoblasts. The experiment in a line: Cytotoxicity assay (Calcein-AM uptake). The note with it: PHA-expanded T-cell lymphoblasts, overnight incubation, Calcein-AM.
Description: (§1) Calcein-AM (Molecular Probes. Eugene, Oreg.) uptake, as a quantitative measure of cell viability, was used to evaluate the toxic effect of compounds on T cells.
(§2) The T-cell lymphoblasts were purified by separation over Lymphoprep, plated at 2×10^5/well in a round bottom 96-well plate containing RPMI with compound and incubated overnight at 37° C. in an incubator containing 5% CO2. The dilution scheme and culture media were the same as those used in the T-cell proliferation assay. After the incubation period, cells were washed with Dulbecco's phosphate-buffered saline (D-PBS) and incubated with 1 μM Calcein-AM for 30-45 mim in D-PBS as described in the technical sheet provided with The LIVE/DEAD Viability/Cytotoxicity Kit from Molecular Probes.
A further series relates to T cells (PBMC). The series can be described thus: cells. It counts as cell-based, human. The note with it: human PBMC, OKT3 30 ng/mL, [3H]thymidine; read-out: T cell prolif. IC50.
Series [3] addresses T1, CD45. The series can be described thus: Phosphatase assay using pNPP as substrate. Format: biochemical. The note with it: CD45 phosphatase, pNPP substrate, pH 7.0; read-out: pNPP IC50. As for the experimental part:
Phosphatase assay using pNPP as substrate:
CD45 enzyme was obtained from BIOMOL (Plymouth Meeting, Pa.). Phosphatase activity was assayed in a buffer containing final concentrations of 25 mM imidazole at pH 7.0, 50 mM NaCl, 2.5 mM ethylenediaminetetraacetic acid (“EDTA”), 5 mM dithiothreitol (“DTT”) and 10 μg/mL bovine serum albumin (“BSA”) using pNPP as a substrate.

The subject of series [4] is T-cell lymphoblasts.
Description: as §1, §2

Where two headings read alike, the source gives them in different places.

What is called IC50 is the concentration at which inhibition is half-maximal. The CC50 is the concentration giving 50% cytotoxicity. On to “8-(9,10-Dioxo-9,10-dihydro-phenanthren-3-ylcarbamoyl)-heptanoic Acid Methyl Ester [Example 78]”, for which the values for the IC50 on CD45 [1], in the series with T cells (PBMC) and on CD45 [3] were 6.9 µM, 1.3 µM and 0.7 µM, respectively. The CC50 in the series on T-cell lymphoblasts [2] is 28 µM.

On to `CCCC(=O)Nc1ccc2c(c1)-c1ccccc1C(=O)C2=O` [Example 9, N-(9,10-Dioxo-9,10-dihydro-phenenathren-3-yl)-butyramide], for which the IC50 at CD45 [1] stood at 5.2 µM; in the series with T cells (PBMC), 0.8 µM; on CD45 [3], 0.8 µM. Besides, the CC50 in the series with T-cell lymphoblasts [2] is 9.1 µM.

With `O=C1C(=O)c2ccc(NC(=O)C(Cl)(Cl)Cl)cc2-c2ccccc21` [Example 11, 2,2,2-Trichloro-N(9,10-dioxo-9,10-dihydro-phenanthren-3-yl)-acetamide], the IC50 at CD45 [1] turned out to be 11.6 µM; in the series with T cells (PBMC) it was 6.5 µM; on CD45 [3], 2.8 µM. In addition, the CC50 with T-cell lymphoblasts [2] was over 30 µM.

On to `O=C1C(=O)c2c(-c3ccc4ccccc4c3)cccc2-c2ccccc21` [Example 19, 1 -Naphthalen-2-yl-phenanthrene-9,10-dione], for which the values for the IC50 at CD45 [1], in the series on T cells (PBMC) and on CD45 [3] were over 30 µM, 1.6 µM and 4.49 µM, respectively. In addition, half-maximal cytotoxicity in the series with T-cell lymphoblasts [4] (CC50) was put at 4.4 µM.

As to `COC(=O)CCCCCCCCC(=O)Nc1ccc2c(c1)-c1ccccc1C(=O)C2=O` [Example 79, 9-(9,10-Dioxo-9,10-dihydro-phenanthren-3-ylcarbamoyl)-nionanoic Acid Methyl Ester], the results for the concentration for half-maximal inhibition (IC50) at CD45 [1], in the series with T cells (PBMC) and on CD45 [3] were over 30 µM, 0.5 µM and 1.6 µM, respectively. In the series with T-cell lymphoblasts [2], the CC50 was over 30 µM.

Values taken from patent US20030207812A1, “Cd45 inhibitors” (priority 2002, published 2003).
